The source of these data is PMC11678245, “The Molecular Basis of the Intrinsic and Acquired Resistance to Azole Antifungals in Aspergillus fumigatus” (Journal of Fungi, 2024).

The subject of assay [1] is S. cerevisiae Y2300 ADΔΔ CYP51 (ScCYP51). Put plainly: MIC80 susceptibility, strain Y2300 (Table S1). It is filed as cell-based, Saccharomyces cerevisiae. As to conditions: Table S1; strain Y2300 ADΔΔ CYP51. How it is done: (§1) The susceptibilities of S. cerevisiae strains to antifungal drugs were determined as minimum growth inhibitory concentration (MIC) values in 200 μL SD pH 6.8 [24]. Serial 2-fold dilutions of 100 μL of azole or control drugs in SD pH 6.8 were prepared in a 96-well microtiter plate. A portion of a 2 mL SD pH 6.8 overnight culture of the test strain was inoculated into 3 mL fresh SD pH 6.8 and incubated for 4 to 6 h at 30 °C to generate logarithmic-phase cells. These cells were then diluted with fresh SD pH 6.8 to OD600nm = 0.01 (3 × 10^4 CFU), and 100 μL of this cell suspension was added to microtiter plate wells. Cell growth after 48 h incubation at 30 °C with shaking at 200 rpm was determined at 600 nm using a BioTek™ Synergy™ 2 multi-Mode microplate reader controlled using Gen5™ Data Analysis Software version 3.16.10 (BioTek Instruments, Winooski, VT, USA). MIC80 values (80% growth inhibition in the presence of the test drug compared with the untreated control) for each yeast construct were determined as technical triplicates repeated three times for three separate clones. […]
(§2) Table S1. Azole susceptibilities of ScCYP51 and ScCYP51 T322I expressed
(§3) Data for each strain was obtained for […] in three biological replicates.

Assay [2] deals with S. cerevisiae Y2305 ADΔΔ CYP51 T322I (ScCYP51 T322I). Put plainly: MIC80 susceptibility, strain Y2305 (Table S1). The format is cell-based, Saccharomyces cerevisiae. Here is the method:
as §1, §2, §3

Assay [3] relates to S. cerevisiae strain BRE (AfCyp51B-6×His, AfCprA2, AfErg6-FLAG). Put plainly: MIC80 susceptibility, strain BRE. It is filed as cell-based, Saccharomyces cerevisiae. As to conditions: Saccharomyces cerevisiae; Table 2; strain BRE; SD pH 6.8, 48 h, 30 °C; ± SD; read-out: MIC80. How it is done: (§4) The susceptibilities of S. cerevisiae strains to antifungal drugs were determined as minimum growth inhibitory concentration (MIC) values in 200 μL SD pH 6.8 [24]. Serial 2-fold dilutions of 100 μL of azole or control drugs in SD pH 6.8 were prepared in a 96-well microtiter plate. A portion of a 2 mL SD pH 6.8 overnight culture of the test strain was inoculated into 3 mL fresh SD pH 6.8 and incubated for 4 to 6 h at 30 °C to generate logarithmic-phase cells. These cells were then diluted with fresh SD pH 6.8 to OD600nm = 0.01 (3 × 10^4 CFU), and 100 μL of this cell suspension was added to microtiter plate wells. Cell growth after 48 h incubation at 30 °C with shaking at 200 rpm was determined at 600 nm using a BioTek™ Synergy™ 2 multi-Mode microplate reader controlled using Gen5™ Data Analysis Software version 3.16.10 (BioTek Instruments, Winooski, VT, USA). MIC80 values (80% growth inhibition in the presence of the test drug compared with the untreated control) for each yeast construct were determined as technical triplicates repeated three times for three separate clones.

Assay [4] relates to S. cerevisiae strain B (AfCyp51B-6×His, native ScCyp51 retained). Put plainly: MIC80 susceptibility, strain B. The format is cell-based. As to conditions: Saccharomyces cerevisiae, Table 2, SD pH 6.8, 48 h, 30 °C. How it is done:
as §4

Assay [5] relates to S. cerevisiae strain A (AfCyp51A-6×His, native ScCyp51 retained). Briefly: MIC80 susceptibility, strain A. The format is cell-based. As to conditions: Saccharomyces cerevisiae, Table 2, SD pH 6.8, 48 h, 30 °C. Here is the method: as §4
For assay [6], the system named is S. cerevisiae strain ARE I301T (AfCyp51A-6×His I301T, AfCprA2, AfErg6-FLAG). Briefly: MIC80 susceptibility, strain I301T. It is filed as cell-based, Saccharomyces cerevisiae. As to conditions: Saccharomyces cerevisiae, 48 h, pH 6.8, Table 2; strain I301T; SD pH 6.8, 48 h, 30 °C; ± SD; read-out: MIC80. How it is done:
as §4

Assay [7] relates to S. cerevisiae strain ADΔΔ (native ScCYP51). Briefly: MIC80 susceptibility, host strain ADΔΔ. It is filed as cell-based. As to conditions: Saccharomyces cerevisiae, Table 2, SD pH 6.8, 48 h, 30 °C. Here is the method:
as §4

A further assay deals with T1, AfCYP51B-6×His (Aspergillus fumigatus, UniProt E9QY26).
T1 sequence (E9QY26 1-524): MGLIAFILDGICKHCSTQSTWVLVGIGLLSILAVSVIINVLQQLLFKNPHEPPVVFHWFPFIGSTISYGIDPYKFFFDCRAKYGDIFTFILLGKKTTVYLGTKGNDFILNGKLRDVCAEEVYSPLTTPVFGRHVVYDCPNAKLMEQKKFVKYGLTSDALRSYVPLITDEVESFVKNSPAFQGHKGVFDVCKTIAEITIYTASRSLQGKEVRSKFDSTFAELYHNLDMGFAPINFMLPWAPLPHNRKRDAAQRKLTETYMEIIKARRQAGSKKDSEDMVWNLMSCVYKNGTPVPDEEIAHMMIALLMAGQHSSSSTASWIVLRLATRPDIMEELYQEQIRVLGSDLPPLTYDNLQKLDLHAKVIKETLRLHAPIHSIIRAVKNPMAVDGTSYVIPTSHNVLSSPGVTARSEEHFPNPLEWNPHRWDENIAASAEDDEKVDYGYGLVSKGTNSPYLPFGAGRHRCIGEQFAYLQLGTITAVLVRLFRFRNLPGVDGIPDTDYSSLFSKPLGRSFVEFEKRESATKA
Briefly: Type II binding of azole drugs (difference spectra). How it is done:
The concentration of AfCYP51A and AfCYP51B, purified using Ni-NTA affinity chromatography and used for the spectrophotometric type I and type II binding assays, was calculated using an extinction co-efficient of λ417nm = 117 mM^−1 cm^−1 applied to the absolute absorption spectrum of the preparations. In addition, the amount of “active” cytochrome P450 enzyme was determined using the carbon monoxide (CO) binding spectra of these preparations.
Type II binding difference spectra were obtained using 1 μM of affinity-purified CYP51 enzymes. VCZ, PCZ, VT-1161, DCZ, and MCF working solutions were prepared in DMSO, while FLC was prepared in Milli-Q water. Azole drugs were added to the sample cuvette, and corresponding amounts of DMSO or Milli-Q water were added to the reference cuvette. Drug binding curves were plotted using the difference spectrum peak and trough detected in the range of 410–425 nm. Dissociation constants (Kd) were determined by nonlinear regression (Levenberg–Marquardt algorithm) of the difference in absorbance between the peak and trough against the azole concentration using a rearrangement of the Morrison equation or the Hill equation [7]. GraphPad Prism 9.2.0 software was used to identify the best fit for the data.

Assay [8] deals with S. cerevisiae strain ARE Y121F (AfCyp51A-6×His Y121F, AfCprA2, AfErg6-FLAG). Put plainly: MIC80 susceptibility, strain Y121F. The format is cell-based, Saccharomyces cerevisiae. As to conditions: Saccharomyces cerevisiae; Table 2; strain Y121F; SD pH 6.8, 48 h, 30 °C; ± SD; read-out: MIC80. Here is the method: as §4
The test system of assay [9] is S. cerevisiae strain ARE Y121F T289A (AfCyp51A-6×His Y121F T289A, AfCprA2, AfErg6-FLAG). Briefly: MIC80 susceptibility, strain Y121F T289A. The format is cell-based, Saccharomyces cerevisiae. As to conditions: Saccharomyces cerevisiae; Table 2; strain Y121F T289A; SD pH 6.8, 48 h, 30 °C; ± SD; read-out: MIC80. How it is done: as §4
For assay [10], the system named is S. cerevisiae strain ARE (AfCyp51A-6×His, AfCprA2, AfErg6-FLAG). Put plainly: MIC80 susceptibility, strain ARE. It is filed as cell-based, Saccharomyces cerevisiae. As to conditions: Saccharomyces cerevisiae; Table 2; strain ARE; SD pH 6.8, 48 h, 30 °C; ± SD; read-out: MIC80. How it is done:
as §4

Assay [11] relates to S. cerevisiae strain ARE T289A (AfCyp51A-6×His T289A, AfCprA2, AfErg6-FLAG). Briefly: MIC80 susceptibility, strain T289A. The format is cell-based, Saccharomyces cerevisiae. Here is the method:
as §4

Each structure is given as a SMILES string.

By MIC80 is commonly meant an inhibitory concentration at the 80% level, which refers to growth in some studies and to a panel of isolates in others. One may read the Kd as the concentration at which binding is half-saturated.

`CCC(C)n1ncn(-c2ccc(N3CCN(c4ccc(OCC5COC(Cn6cncn6)(c6ccc(Cl)cc6Cl)O5)cc4)CC3)cc2)c1=O` (centres unmarked) [ITC]: the MIC80 in [1] was 0.15 ± 0.01 µM; in [2], 0.13 ± 0.01 µM.
`O[C@@](Cn1cnnn1)(c1ccc(F)cc1F)C(F)(F)c1ccc(-c2ccc(OCC(F)(F)F)cc2)cn1` [VT-1161, oteseconazole]: the MIC80 came to 0.06 ± 0.01 µM in assay [3]; 0.05 ± 0.01 µM in [4]; 0.03 µM in assay [5]; 0.14 ± 0.04 µM in [6]; 0.01 µM in assay [7]; 0.53 ± 0.02 µM in assay [8]. The MIC80 in [9] came out at 1.07 ± 0.05 µM; in [10], 0.43 ± 0.05 µM; in assay [11] (Saccharomyces cerevisiae, 48 h, pH 6.8, Table 2, strain T289A, SD pH 6.8, 48 h, 30 °C, ± SD, read-out: MIC80), 0.02 µM. For the same molecule, at AfCYP51B-6×His (1 μM enzyme), the “λpeak (type II difference spectrum)” value came to 423 nm. Besides, the “λtrough (type II difference spectrum)” value on AfCYP51B-6×His (1 μM enzyme) was determined as 391 nm. Moreover, the “ΔAmax (type II binding)” value at AfCYP51B-6×His (1 μM enzyme, Hill equation) was found to be 0.11. The “Hill Number” value on AfCYP51B-6×His (type II binding) is listed as 0.87. The Kd on AfCYP51B-6×His (type II binding, 1 μM enzyme, Hill equation) turned out to be 3.23 ± 2.5 µM. For the same molecule, the “greater susceptibility (MIC80) of strain T289A compared with strain ARE” value in assay [11] is given as 21 fold.
